Reference: patent publication US10023587B2, “Oxabicycloheptanes and oxabicycloheptenes, their preparation and use” (LIXTE BIOTECHNOLOGY, INC., priority 2007, dated 2018)
Read-outs that look alike come from different tables or passages of the source.

Columns and labels:
C. glabrata = assay: Antifungal susceptibility testing (broth dilution), C. glabrata; assay type: cell-based, Candida glabrata; conditions: for MIC: Nakaseomyces glabratus, read-out: minimum inhibitory concentration (MIC)
Description: (§1) Anti-fungal testing was completed with a common lot for compounds 100 and 102.
(§2) A 10 mg portion of each powder was weighed out and added to 1 ml of sterile distilled water for compound 100 and DMSO for compound 102. The resulting concentration of […] was diluted to a working concentration of 640 μg/ml for each compound. All subsequent dilutions were also made using the respective diluents. Final testing concentrations ranged from 0.125-64 μg/ml.
(§3) A total of 23 isolates were tested to include 3 Candida albicans, 3 Candida glabrata, 3 Cryptococcus neoformans, 3 Aspergillus fumigatus, 3 Rhizopus oryzae, 3, Fusarium solani, 3 Pseudallescheria boydii, and 2 […] rubrum. All isolates were clinical isolates submitted to the Fungus Testing Laboratory for evaluation. Antifungal susceptibility testing was accomplished according to the methods outlined in the National Committee for Clinical Laboratory Standards, M-27A2, Reference Method for Broth Dilution Antifungal Susceptibility Testing of Yeasts; Approved Standard, and M38-A “Reference Method for Broth Dilution Antifungal Susceptibility Testing of Conidium-Forming Filamentous Fungi; Approved Standard”. This includes testing in RPMI-1640 with glutamine and without bicarbonate, an inoculum size of 0.5-2.5×10^3 for yeasts or 1-5×10^4 for moulds, and incubation at 35° C. for 24 and 48 hours.

DAOY cells = assay: DAOY xenograft tumor growth in SCID mice; assay type: in vivo; conditions: subcutaneous in SCID mice, ip daily for 20 days (FIG. 18)
Description: For in vivo experiments, subcutaneously implanted tumor cells are allowed to grow over 7 days to a size of 5-7 mm. On day 7, drug administration is begun ip daily for 20 days. The maximum perpendicular diameters of the tumor masses are measured every 2 to 5 days. On the 21st day after initiation of treatment, the animals are sacrificed and dissected free of the subcutaneous tissues and measured.

HT-29 cells = assay: CellTiter-Glo assay, HT-29; assay type: cell-based; conditions: Homo sapiens; HT-29 Colon, 72 hr; read-out: IC50 (50% Inhibition of Proliferation)
Description: (§4) MDA-MB-231, HT-29, NCI-H460, NCI-H522, NCI-H69, GXF-209, HepG2, OVAR-3, PANC-1, DU-145, LNCAP, HL-60, K-562, and MOLT-4 cell lines were either obtained from the American Type Culture Collection (ATCC; Manassas, Va.), or from the National Cancer Institute (NCI; Frederick, Md.). RPMI-1640 media, L-glutamine dipeptide (HyQ SG-200), and HEPES were obtained from Hyclone (Logan, Utah).
(§5) All cell lines were routinely cultured twice weekly in RPMI-1640 medium supplemented with 2 mM L-glutamine dipeptide, 10 mM HEPES, and 10% FBS.
(§6) The adherent cell lines MDA-MB-231, HT-29, NCI-H460, NCI-H522, GXF-209, HepG2, OVAR-3, PANC-1, DU-145, and LNCAP cells were each seeded into two 96-well plates at 2,500 cells per well in a total volume of 50 uL and incubated in a 37° C. humidified 5% CO2 cell culture incubator overnight. The suspension cell lines NCI-H69, HL-60, K-562, and MOLT-4 were each seeded into two 96-well plates at 10,000 cell per well in a total volume of 50 uL and incubated in a 37° C. humidified 5% CO2 incubator overnight.
(§7) This was followed by making 2× stocks of the final concentrations required in RPMI-1640 medium. […]
(§8) Briefly, plates were removed from the incubator and placed on the bench at room temperatures for 30 minutes. […] Luminescence was then recorded using the PerkinElmer Microbeta scintillation and luminescence counter (Trilux).

R. arrhizus = assay: Antifungal susceptibility testing (broth dilution), R. arrhizus; assay type: cell-based, Rhizopus oryzae; conditions: for MIC: Rhizopus arrhizus, read-out: minimum inhibitory concentration (MIC)
Description: as §1, §2, §3

PANC-1 cells = assay: CellTiter-Glo assay, PANC-1; assay type: cell-based; conditions: Homo sapiens; PANC-1 Pancreas, 72 hr; read-out: IC50 (50% Inhibition of Proliferation)
Description: as §4, §5, §6, §7, §8

A. fumigatus = assay: Antifungal susceptibility testing (broth dilution), A. fumigatus; assay type: cell-based, Aspergillus fumigatus; conditions: for MIC: Aspergillus fumigatus, read-out: minimum inhibitory concentration (MIC)
Description: as §1, §2, §3

DU-145 cells = assay: CellTiter-Glo assay, DU-145; assay type: cell-based; conditions: Homo sapiens; DU-145 Prostate, 72 hr; read-out: IC50 (50% Inhibition of Proliferation)
Description: as §4, §5, §6, §7, §8

F. solani = assay: Antifungal susceptibility testing (broth dilution), F. solani; assay type: cell-based, Fusarium solani; conditions: for MIC: Fusarium solani, read-out: minimum inhibitory concentration (MIC)
Description: as §1, §2, §3

LNCAP cells = assay: CellTiter-Glo assay, LNCAP; assay type: cell-based; conditions: Homo sapiens; LNCAP Prostate, 72 hr; read-out: IC50 (50% Inhibition of Proliferation)
Description: as §4, §5, §6, §7, §8

NCI-H460 cells = assay: CellTiter-Glo assay, NCI-H460; assay type: cell-based; conditions: Homo sapiens; NCI-H460 Lung: large cell, 72 hr; read-out: IC50 (50% Inhibition of Proliferation)
Description: as §4, §5, §6, §7, §8

MDA-MB-231 cells = assay: CellTiter-Glo assay, MDA-MB-231; assay type: cell-based; conditions: Homo sapiens; MDA-MB-231 Breast, 72 hr; read-out: IC50 (50% Inhibition of Proliferation)
Description: as §4, §5, §6, §7, §8

SMILES	minimum inhibitory concentration (MIC) (C. glabrata; isolate 07-2965, 24 Hours) [µg/mL]	minimum inhibitory concentration (MIC) (C. glabrata; isolate 07-2965, 48 Hours) [µg/mL]	minimum inhibitory concentration (MIC) (C. glabrata; isolate 07-3013, 24 Hours) [µg/mL]	minimum inhibitory concentration (MIC) (C. glabrata; isolate 07-3013, 48 Hours) [µg/mL]	Effect on DAOY xenograft tumor growth (in words) (DAOY cells)	IC50 (HT-29 cells) [µM]	minimum inhibitory concentration (MIC) (R. arrhizus; isolate 07-2044, 24 Hours) [µg/mL]	minimum inhibitory concentration (MIC) (R. arrhizus; isolate 07-2044, 48 Hours) [µg/mL]	minimum inhibitory concentration (MIC) (R. arrhizus; isolate 07-2078, 24 Hours) [µg/mL]	minimum inhibitory concentration (MIC) (R. arrhizus; isolate 07-2078, 48 Hours) [µg/mL]	IC50 (PANC-1 cells) [µM]	minimum inhibitory concentration (MIC) (A. fumigatus; isolate 06-4126, 24 Hours) [µg/mL]	minimum inhibitory concentration (MIC) (A. fumigatus; isolate 06-4126, 48 Hours) [µg/mL]	minimum inhibitory concentration (MIC) (A. fumigatus; isolate 07-2039, 24 Hours) [µg/mL]	minimum inhibitory concentration (MIC) (A. fumigatus; isolate 07-2039, 48 Hours) [µg/mL]	IC50 (DU-145 cells) [µM]	minimum inhibitory concentration (MIC) (F. solani; isolate 07-1755, 24 Hours) [µg/mL]	minimum inhibitory concentration (MIC) (F. solani; isolate 07-1755, 48 Hours) [µg/mL]	minimum inhibitory concentration (MIC) (F. solani; isolate 07-1867, 24 Hours) [µg/mL]	minimum inhibitory concentration (MIC) (F. solani; isolate 07-1867, 48 Hours) [µg/mL]	also measured
CC(C)(C)OC(=O)N1CCN(C(=O)C2C(C(=O)O)[C@H]3CC[C@@H]2O3)CC1 (stereo in doubt) [Compound 102, 4-(3-Carboxy-7oxa-bicyclo[2.2.1]heptane-2-carbonyl)piperazine-1-carboxylic acid tert-butyl ester]	>64	>64	>64	>64	inhibit the proliferation	3.6	>64	>64	>64	>64	20.7	>64	>64	>64	>64	13	>64	>64	>64	>64	MIC (C. glabrata; isolate 07-2964, 24 Hours): > 64 µg/mL; MIC (C. glabrata; isolate 07-2964, 48 Hours): > 64 µg/mL; MIC (R. arrhizus; isolate 07-1870, 24 Hours): > 64 µg/mL; MIC (R. arrhizus; isolate 07-1870, 48 Hours): > 64 µg/mL; MIC (A. fumigatus; isolate 05-388, 24 Hours): > 64 µg/mL; MIC (A. fumigatus; isolate 05-388, 48 Hours): > 64 µg/mL; MIC (F. solani; isolate 07-1399, 24 Hours): > 64 µg/mL; MIC (F. solani; isolate 07-1399, 48 Hours): > 64 µg/mL; IC50 (LNCAP cells): 0.48 µM; IC50 (NCI-H460 cells): 17.5 µM; IC50 (MDA-MB-231 cells): 6.6 µM
CN1CCN(C(=O)C2C(C(=O)O)[C@H]3CC[C@@H]2O3)CC1 (some centres unmarked) [Compound 100, Endothall 4-Methylpiperazine Monoamide]	>64	>64	>64	>64	inhibit the proliferation	5.3	>64	>64	>64	>64	25.1	>64	>64	>64	>64	16.4	>64	>64	>64	>64	MIC (C. glabrata; 24 h): > 64 µg/mL; MIC (C. glabrata; 48 h): > 64 µg/mL; MIC (R. arrhizus; 24 h): > 64 µg/mL; MIC (R. arrhizus; 48 h): > 64 µg/mL; MIC (A. fumigatus; 24 h): > 64 µg/mL; MIC (A. fumigatus; 48 h): > 64 µg/mL; MIC (F. solani; 24 h): > 64 µg/mL; MIC (F. solani; 48 h): > 64 µg/mL; IC50 (LNCAP cells): 1.5 µM; IC50 (NCI-H460 cells): 24.3 µM; IC50 (MDA-MB-231 cells): 9.5 µM
